Data as given in PubChem BioAssay AID192 (DTP/NCI, 2004).
Inconclusive results and toxic doses are left out. Rule for the calls: active = survival T/C of 150% or more; inactive = T/C below 125% in these data. Numbered stars: 1 amine (or outer) side, 2 acyl side, 3 side chain; on linkers, the order of the positions; unused ones are H or OH. Bridge positions count the residues as written; N and C are the ends. Square brackets hold non-standard residues; d marks the D form. Peptide text beside a SMILES is read from it. I, II: the chains in the order shown. Actinocin(1to9) = Cc1c2oc3c(C)ccc(C(=O)[*:2])c3nc-2c(C(=O)[*:1])c(N)c1=O; NMeV = CN[CH](C(=O)O)C(C)C; Sar = CNCC(=O)O

System: BDF1 mice, B16 melanoma ip, median survival T/C
Assay: NCI In Vivo Anticancer Drug Screen. Data for tumor model B16 Melanoma (intraperitoneal) in B6D2F1 (BDF1) mice
Settings: endpoint: median survival time, higher = longer survival
How it was run: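 Tumor-bearing mice received test compound or vehicle. Survival or tumor size was then measured in both groups. The treated-group figure was divided by the control-group figure.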

[1] = dose: 100.0 mg/kg/injection, schedule: Q01DX009 (ip), vehicle: saline with Tween-80

Measured: T/C

CC[n+]1c(C)sc2cc3c(cc21)OCO3
inactive: dose: 25.0 mg/kg/injection, schedule: Q01DX009 (ip), vehicle: carboxymethylcellulose (CMC) 108 % of control | dose: 50.0 mg/kg/injection, schedule: Q01DX009 (ip), vehicle: carboxymethylcellulose (CMC) 106 % of control

CN(C)CCCN1c2ccccc2CCc2ccc(Cl)cc21
inactive: dose: 6.25 mg/kg/injection, schedule: Q01DX009 (ip), vehicle: saline 101 % of control | dose: 12.5 mg/kg/injection, schedule: Q01DX009 (ip), vehicle: saline 108 % of control | dose: 25.0 mg/kg/injection, schedule: Q01DX009 (ip), vehicle: saline 115 % of control | dose: 50.0 mg/kg/injection, schedule: Q01DX009 (ip), vehicle: saline 98 % of control

CC(C)C(NC(=O)C(N)CCC(=O)O)C(=O)O (stereo not drawn) (H-Glu-Val-OH; configuration not given here)
inactive: dose: 50.0 mg/kg/injection, schedule: Q01DX009 (ip), vehicle: saline with Tween-80 109 % of control | [1] 104 % of control | dose: 200.0 mg/kg/injection, schedule: Q01DX009 (ip), vehicle: saline with Tween-80 108 % of control | dose: 400.0 mg/kg/injection, schedule: Q01DX009 (ip), vehicle: saline with Tween-80 98 % of control

C[C@@H]1CC[C@]2(C)CC[C@]3(C)C(=CC[C@@H]4[C@@]5(C)CC[C@@H](OC(=O)c6ccc(O)cc6)C(C)(C)[C@@H]5C[C@H](O)[C@]43C)[C@@H]2[C@H]1C(=O)O
inactive: dose: 0.02 mg/kg/injection, schedule: Q01DX009 (ip), vehicle: saline with Tween-80 96 % of control | dose: 0.05 mg/kg/injection, schedule: Q01DX009 (ip), vehicle: saline with Tween-80 91 % of control | dose: 0.1 mg/kg/injection, schedule: Q01DX009 (ip), vehicle: saline with Tween-80 88 % of control

c1cc2c(c(CC3CO3)c1CC1CO1)OCCOCCOCCOCCO2 (stereo not given)
inactive: dose: 50.0 mg/kg/injection, schedule: Q01DX009 (ip), vehicle: saline + Tween-80 + alcohol 109 % of control | dose: 100.0 mg/kg/injection, schedule: Q01DX009 (ip), vehicle: saline + Tween-80 + alcohol 118 % of control

CCC(C)C1NC(=O)C(NC(=O)c2c3nc4c(C(=O)NC5C(=O)NC(C(C)CC)C(=O)N6CCCC6C(=O)N(C)CC(=O)N(C)C(C(C)C)C(=O)OC5C)ccc(C)c4oc-3c(C)c(=O)c2N)C(C)OC(=O)C(C(C)C)N(C)C(=O)CN(C)C(=O)C2CCCN2C1=O (stereo not given) (I: TIP[Sar][NMeV] / II: TIP[Sar][NMeV]; ester I:1-I:C, II:1-II:C; linker I:N-II:N via Actinocin(1to9); configuration not given here)
inactive: dose: 0.2 mg/kg/injection, schedule: Q01DX001 (ip), vehicle: water 120 % of control | dose: 0.4 mg/kg/injection, schedule: Q01DX001 (ip), vehicle: water 114 % of control | dose: 0.8 mg/kg/injection, schedule: Q01DX001 (ip), vehicle: water 123 % of control | dose: 12.5 micrograms/kg/injection, schedule: Q01DX009 (ip), vehicle: water 108 % of control | dose: 25.0 micrograms/kg/injection, schedule: Q01DX009 (ip), vehicle: water 119 % of control | dose: 75.0 micrograms/kg/injection, schedule: Q04DX003 (ip), vehicle: water 115 % of control | dose: 150.0 micrograms/kg/injection, schedule: Q04DX003 (ip), vehicle: water 114 % of control

C/C=C1\CN(C)[C@H]2Cc3c([nH]c4ccccc34)[C@@H](c3cc4[nH]c5c(c4cc3OC)CCN3C[C@H]4C[C@H](CC)[C@H]3[C@@]5(C(=O)OC)C4)C[C@H]1C2C(=O)OC (stereo not given in full)
inactive: dose: 2.5 mg/kg/injection, schedule: Q01DX009 (ip), vehicle: suspension in saline 98 % of control | dose: 3.0 mg/kg/injection, schedule: Q01DX009 (ip), vehicle: saline with Tween-80 100 % of control | dose: 5.0 mg/kg/injection, schedule: Q01DX009 (ip), vehicle: suspension in saline 101 % of control | dose: 6.0 mg/kg/injection, schedule: Q01DX009 (ip), vehicle: saline with Tween-80 95 % of control | dose: 10.0 mg/kg/injection, schedule: Q01DX009 (ip), vehicle: suspension in saline 99 % of control | dose: 12.0 mg/kg/injection, schedule: Q01DX009 (ip), vehicle: saline with Tween-80 106 % of control | dose: 25.0 mg/kg/injection, schedule: Q04DX003 (ip), vehicle: saline with Tween-80 90 % of control | [1] 87 % of control

CC1C2CCC3C(O)C2(CC(O)C2(O)C1CC(O)C2(C)C)CC3(C)O (stereo not given)
inactive: dose: 0.25 mg/kg/injection, schedule: Q01DX009 (ip), vehicle: Klucel (hydroxypropylcellulose) (HPC) 103 % of control | dose: 0.5 mg/kg/injection, schedule: Q01DX009 (ip), vehicle: Klucel (hydroxypropylcellulose) (HPC) 103 % of control

COc1cc2c(cc1Oc1c(Oc3c(O)c(OC)cc4c3C(CC(C)C)N(C)CC4)c(OC)cc3c1C(CC(C)C)N(C)CC3)C(CC(C)C)N(C)CC2 (stereo not given)
inactive: dose: 12.5 mg/kg/injection, schedule: Q01DX009 (ip), vehicle: Klucel (hydroxypropylcellulose) (HPC) 100 % of control | dose: 25.0 mg/kg/injection, schedule: Q01DX009 (ip), vehicle: Klucel (hydroxypropylcellulose) (HPC) 96 % of control | dose: 50.0 mg/kg/injection, schedule: Q01DX009 (ip), vehicle: Klucel (hydroxypropylcellulose) (HPC) 110 % of control
